Measurements taken from the supplement of paper PMC10307832.

Assays:
Experiment in all cases: relative viability (nuclei count vs DMSO), 5 days (fraction); higher = more cells survive
[1] = compound: O=C(C[C@H]1NCCC[C@@H]1O)Cn1cnc2cc(Br)c(Cl)cc2c1=O (racemic) [Halofuginone] + CS(=O)(=O)CCNCc1ccc(-c2ccc3ncnc(Nc4ccc(OCc5cccc(F)c5)c(Cl)c4)c3c2)o1 [Lapatinib] (partner 2 µM)
How it was run: (§1)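 One day after seeding in 1536-well plates, lung cancer cell lines were dosed by pin tool. Dosing was either single-drug or a fixed anchor-drug dose plus five library-drug doses (not always all listed) in √10 steps. After 5 days, nuclei were stained in one fix-and-stain step and counted on 4× images, and relative viability is the nuclei count of treated wells over that of vehicle wells, given as the median of duplicate plates.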

[2] = compound: COc1cc2c(Oc3ccc4[nH]c(C)cc4c3F)ncnc2cc1OCCCN1CCCC1 [Cediranib] + Cc1nc(NC(=O)N2CCC[C@H]2C(N)=O)sc1-c1ccnc(C(C)(C)C(F)(F)F)c1 [Alpelisib] (partner 2 µM)
How it was run: as §1

[3] = compound: Nc1ncn([C@H]2C[C@H](O)[C@@H](CO)O2)c(=O)n1 [Decitabine] + O=C(CCCCCCC(=O)Nc1ccccc1)NO [Vorinostat] (partner 1 µM)
How it was run: as §1

[4] = compound: COc1cc2c(Oc3ccc4[nH]c(C)cc4c3F)ncnc2cc1OCCCN1CCCC1 [Cediranib] + COc1cccc2cc(-c3nc([C@H]4CC[C@H](C(=O)O)CC4)n4ncnc(N)c34)[nH]c12 [OSI-027] (partner 0.5 µM)
How it was run: as §1

Cell Line | relative viability ([1]; first compound 0.001 µM) | relative viability ([1]; first compound 0.003162 µM) | relative viability ([1]; first compound 0.01 µM) | relative viability ([1]; first compound 0.03162 µM) | relative viability ([1]; first compound 0.1 µM) | relative viability ([2]; first compound 0.04 µM) | relative viability ([2]; first compound 0.1265 µM) | relative viability ([2]; first compound 0.4 µM) | relative viability ([2]; first compound 1.265 µM) | relative viability ([2]; first compound 4 µM) | relative viability ([3]; first compound 0.04 µM) | relative viability ([3]; first compound 0.1265 µM) | relative viability ([3]; first compound 0.4 µM) | relative viability ([3]; first compound 1.265 µM) | relative viability ([3]; first compound 4 µM) | relative viability ([4]; first compound 0.04 µM) | relative viability ([4]; first compound 0.1265 µM) | relative viability ([4]; first compound 0.4 µM) | relative viability ([4]; first compound 1.265 µM) | relative viability ([4]; first compound 4 µM)
NCI-H2085 | 0.769 | 0.762 | 0.695 | 0.778 | 0.649 | 1.02 | 0.94 | 0.974 | 1.09 | 0.953 | 0.65 | 0.657 | 0.591 | 0.443 | 0.431 | 0.801 | 0.786 | 0.759 | 0.48 | 0.856
NCI-H522 |  |  |  |  |  |  |  |  |  |  | 0.898 | 0.684 | 0.562 | 0.505 | 0.54 | 0.719 | 0.77 | 0.686 | 0.707 | 0.694
NCI-H441 |  |  |  |  |  | 0.629 | 0.69 |  | 0.638 | 0.781 | 0.211 | 0.281 | 0.249 | 0.169 | 0.181 | 0.809 |  | 0.658 | 0.675 | 0.632
NCI-H1563 | 0.757 | 0.853 | 0.879 | 0.627 | 0.506 | 0.988 | 0.898 | 0.967 | 0.949 | 0.761 |  |  |  |  |  | 0.799 | 1.03 | 0.767 | 0.744 | 0.796
NCI-H1703 | 1.15 | 1.28 | 0.95 | 0.792 | 0.427 | 0.264 | 0.337 | 0.218 | 0.205 | 0.169 |  |  |  |  |  |  |  |  |  | 
LCLC-103H |  |  |  |  |  | 1.03 | 1.08 | 0.98 | 0.932 | 0.917 | 0.653 | 0.81 | 0.628 | 0.511 | 0.561 | 0.469 | 0.501 | 0.474 | 0.467 | 0.504
NCI-H1792 | 0.897 | 0.857 | 0.896 | 0.831 | 0.994 | 0.762 | 0.939 | 0.648 | 0.718 | 0.589 |  |  |  |  |  | 0.731 | 0.732 | 0.661 | 0.76 | 0.757
NCI-H1648 |  |  |  |  |  |  |  |  |  |  | 0.384 | 0.386 | 0.305 | 0.249 | 0.315 | 0.284 |  | 0.259 | 0.272 | 0.246
EBC-1 | 0.223 | 0.247 | 0.233 | 0.266 | 0.245 | 0.857 | 1.01 | 0.762 | 0.719 | 1.02 |  |  |  |  |  |  |  |  |  | 
NCI-H1650 | 0.594 | 0.787 | 0.677 | 0.704 | 0.194 |  |  |  |  |  | 0.358 | 0.367 | 0.318 | 0.195 | 0.215 | 0.781 | 0.596 | 0.589 | 0.577 | 0.436
NCI-H1299 | 0.995 | 1 | 0.916 | 0.941 | 0.65 | 1.09 | 1.03 | 1.01 | 1.04 | 1.14 |  |  |  |  |  |  |  |  |  | 
A549 | 0.993 | 0.973 | 0.928 | 0.603 | 0.203 | 0.698 | 0.947 | 0.654 | 0.701 | 0.869 |  |  |  |  |  |  |  |  |  | 
IA-LM | 0.85 | 0.781 | 0.579 | 0.518 | 0.0907 | 0.845 | 0.959 | 0.928 | 0.592 | 0.655 | 0.853 | 0.403 | 0.393 | 0.236 | 0.164 |  |  |  |  | 
